Tests used:
ABUTH (Velvetleaf) [1] = assay: Preemergence herbicidal evaluation; type: in vivo, Abutilon theophrasti; conditions: 0.2500 kg/ha, rated 4-5 weeks after treatment
Source text: (§1) Results of herbicide evaluation are expressed on a rating scale (0-9). The scale is based upon a visual observation of plant stand, vigor, malformation, size, chlorosis and overall plant appearance as compared with a control.
(§2) The preemergence herbicidal activity of the test compounds of the present invention is exemplified by the following tests in which the seeds of a variety of monocotyledonous and dicotyledonous plants are separately mixed with potting soil and planted on top of approximately one inch of soil in separate pint cups. After planting, the cups are sprayed with the selected aqueous acetone solution containing test compound in sufficient quantity to provide the equivalent of about 0.0156 to 0.500 kg per hectare of test compound per cup. The treated cups are then placed on greenhouse benches, watered and cared for in accordance with conventional greenhouse procedures. From four to five weeks after treatment, the tests are terminated and each cup is examined and rated according to the rating system provided in Example 37.
(§3) The compounds evaluated are reported by compound number given in Example 37.

CYPIR (Rice Flatsedge) = assay: Preemergence weed control under flooded paddy conditions; type: in vivo, Cyperus iria; conditions: rated 3-4 weeks after treatment
Protocol: as §1
(§4) Preemergence herbicidal activity under flooded paddy conditions is determined as follows: plant seeds or propagating organs are planted in the top 0.5 cm of silt loam soil in 32 oz. plastic containers with a diameter of 10.5 cm and no drainage holes. Water is added to these containers and maintained at 1.5 to 3 cm above the soil surface for the duration of the experiment. The test compounds are applied as aqueous/acetone mixtures 50/50 v/v pipetted directly into the flood water to give the equivalent of about 0.0313 to 0.500 kg/ha of active ingredient. The treated containers are placed on greenhouse benches and cared for in accordance with conventional greenhouse procedures. Three to four weeks after treatment, the test is terminated and each container is examined and herbicidal effect rated according to the rating system provided in Example 37. The compounds evaluated are reported by compound number given in Example 37.
(§5) Plant species employed in this example are reported by header abbreviation, common name and scientific name.

SETVI (Foxtail, Green) [2] = assay: Preemergence herbicidal evaluation; type: in vivo, Setaria viridis; conditions: 0.2500 kg/ha, rated 4-5 weeks after treatment
Source text: as §1, §2, §3

[3] = test system: SAGPY (Arrowhead (Pygmaea)); assay: Preemergence weed control under flooded paddy conditions; type: in vivo, Sagittaria pygmaea; conditions: rated 3-4 weeks after treatment
Protocol: as §1, §4, §5

[4] = test system: CHEAL (Lambsquarters, Common); assay: Preemergence herbicidal evaluation; type: in vivo, Chenopodium album; conditions: 0.2500 kg/ha, rated 4-5 weeks after treatment
Source text: as §1, §2, §3

ZEAMX (Corn, Field) [5] = assay: Preemergence herbicidal evaluation; type: in vivo, Zea mays; conditions: 0.2500 kg/ha, rated 4-5 weeks after treatment
Source text: as §1, §2, §3

[6] = test system: GLXMAW (Soybean, Williams); assay: Preemergence herbicidal evaluation; type: in vivo, Glycine max, (L.) Merr. cv Williams; conditions: 0.2500 kg/ha, rated 4-5 weeks after treatment
Source text: as §1, §2, §3

GALAP (Galium) [7] = assay: Preemergence herbicidal evaluation; type: in vivo, Galium aparine; conditions: 0.2500 kg/ha, rated 4-5 weeks after treatment
Source text: as §1, §2, §3

CASOB (Sicklepod) [8] = assay: Postemergence herbicidal evaluation; type: in vivo, Cassia obtusifolia; conditions: postemergence
Protocol: (§6) In the tests, seedling plants are grown in jiffy flats for about two weeks. The test compounds are dispersed in 50/50 acetone/water mixtures containing 0.5% TWEEN®20, a polyoxyethylene sorbitan monolaurate surfactant of Atlas Chemical Industries, in sufficient quantities to provide the equivalent of about 0.0156 kg to 0.500 kg per hectare of active compound when applied to the plants through a spray nozzle operating at 40 psi for a predetermined time. After spraying, the plants are placed on greenhouse benches and are cared for in accordance with conventional greenhouse procedures. From four to five weeks after treatment, the seedling plants are examined and rated according to the rating system set forth below. Where more than one test is involved for a given compound, the data are averaged.
(§7) Plant species employed in these evaluations are reported by header abbreviation, common name and scientific name.
as §1

CASOB (Sicklepod) [9] = assay: Preemergence herbicidal evaluation; type: in vivo, Cassia obtusifolia; conditions: 0.2500 kg/ha, rated 4-5 weeks after treatment
Source text: as §1, §2, §3

ORYSAT (Rice, Tebonnet) [10] = assay: Postemergence herbicidal evaluation; type: in vivo, Oryza sativa, (L.) Tebonnet; conditions: postemergence
Protocol: as §6, §7, §1

[11] = test system: TRZAWR (Wheat, Winter, cv Riband); assay: Preemergence herbicidal evaluation; type: in vivo, Triticum aestivum; conditions: 0.2500 kg/ha, rated 4-5 weeks after treatment
Source text: as §1, §2, §3

ABUTH (Velvetleaf) [12] = assay: Postemergence herbicidal evaluation; type: in vivo, Abutilon theophrasti; conditions: postemergence
Protocol: as §6, §7, §1

ORYSAT (Rice, Tebonnet) [13] = assay: Preemergence herbicidal evaluation; type: in vivo, Oryza sativa, (L.) Tebonnet; conditions: 0.2500 kg/ha, rated 4-5 weeks after treatment
Source text: as §1, §2, §3

ECHCG (Barnyardgrass) [14] = assay: Postemergence herbicidal evaluation; type: in vivo, Echinochloa crus-galli; conditions: postemergence
Protocol: as §6, §7, §1

[15] = test system: IPOHE (Morningglory, Ivyleaf); assay: Postemergence herbicidal evaluation; type: in vivo, Ipomoea hederacea; conditions: postemergence
Protocol: as §6, §7, §1

CYPSE (Flatsedge) = assay: Preemergence weed control under flooded paddy conditions; type: in vivo, Cyperus serotinus; conditions: rated 3-4 weeks after treatment
Protocol: as §1, §4, §5

[16] = test system: IPOHE (Morningglory, Ivyleaf); assay: Preemergence herbicidal evaluation; type: in vivo, Ipomoea hederacea; conditions: 0.2500 kg/ha, rated 4-5 weeks after treatment
Source text: as §1, §2, §3

AMBEL (Ragweed, Common) [17] = assay: Preemergence herbicidal evaluation; type: in vivo, Ambrosia artemisifolia; conditions: 0.2500 kg/ha, rated 4-5 weeks after treatment
Source text: as §1, §2, §3

SETVI (Foxtail, Green) [18] = assay: Postemergence herbicidal evaluation; type: in vivo, Setaria viridis; conditions: postemergence
Protocol: as §6, §7, §1

[19] = test system: ECHORC (Watergrass (Calif.)); assay: Preemergence weed control under flooded paddy conditions; type: in vivo, Echinochloa oryzoides; conditions: rated 3-4 weeks after treatment
Protocol: as §1, §4, §5

[20] = test system: CHEAL (Lambsquarters, Common); assay: Postemergence herbicidal evaluation; type: in vivo, Chenopodium album; conditions: postemergence
Protocol: as §6, §7, §1

AMBEL (Ragweed, Common) [21] = assay: Postemergence herbicidal evaluation; type: in vivo, Ambrosia artemisifolia; conditions: postemergence
Protocol: as §6, §7, §1

[22] = test system: GLXMAW (Soybean, Williams); assay: Postemergence herbicidal evaluation; type: in vivo, Glycine max, (L.) Merr. cv Williams; conditions: postemergence
Protocol: as §6, §7, §1

MOOVA (Monochoria) = assay: Preemergence weed control under flooded paddy conditions; type: in vivo, Monochoria vaginalis; conditions: rated 3-4 weeks after treatment
Protocol: as §1, §4, §5

GALAP (Galium) [23] = assay: Postemergence herbicidal evaluation; type: in vivo, Galium aparine; conditions: postemergence
Protocol: as §6, §7, §1

ZEAMX (Corn, Field) [24] = assay: Postemergence herbicidal evaluation; type: in vivo, Zea mays; conditions: postemergence
Protocol: as §6, §7, §1

ECHCG (Barnyardgrass) [25] = assay: Preemergence herbicidal evaluation; type: in vivo, Echinochloa crus-galli; conditions: 0.2500 kg/ha, rated 4-5 weeks after treatment
Source text: as §1, §2, §3

[26] = test system: TRZAWR (Wheat, Winter, cv Riband); assay: Postemergence herbicidal evaluation; type: in vivo, Triticum aestivum; conditions: postemergence
Protocol: as §6, §7, §1

CCOC(=O)CN1C(=O)CSC1=Nc1cc(N2C(=O)CC(C(F)(F)F)CC2=O)c(F)cc1Cl [Compound 169, Ethyl 2-{{2-chloro-5-[2,6-dioxo-4-(trifluoromethyl)piperidino]-4-fluorophenyl}imino}-4-oxo-3-thiazolidineacetate]
6.0: herbicidal effect rating, MOOVA (MOOVA (Monochoria); 0.0625 kg/ha) | herbicidal effect rating, MOOVA (MOOVA (Monochoria); 0.1250 kg/ha) | herbicidal rating ZEAMX (ZEAMX (Corn, Field) [24]; rate 0.0156 kg/ha) | herbicidal rating TRZAWR ([26]; rate 0.0313 kg/ha)
1.0: herbicidal rating CASOB (CASOB (Sicklepod) [8]; rate 0.0313 kg/ha) | herbicidal rating ORYSAT (ORYSAT (Rice, Tebonnet) [10]; rate 0.0313 kg/ha)
6.5: herbicidal rating GLXMAW ([22]; rate 0.0313 kg/ha)
9.0: herbicidal rating ABUTH (ABUTH (Velvetleaf) [12]; rate 0.0156 kg/ha) | herbicidal rating ABUTH (ABUTH (Velvetleaf) [12]; rate 0.0313 kg/ha) | herbicidal rating ABUTH (ABUTH (Velvetleaf) [12]; rate 0.0625 kg/ha) | herbicidal rating IPOHE ([15]; rate 0.0156 kg/ha) | herbicidal rating IPOHE ([15]; rate 0.0313 kg/ha) | herbicidal rating IPOHE ([15]; rate 0.0625 kg/ha) | herbicidal rating SETVI (SETVI (Foxtail, Green) [18]; rate 0.0625 kg/ha) | herbicidal rating AMBEL (AMBEL (Ragweed, Common) [21]; rate 0.0156 kg/ha) | herbicidal rating AMBEL (AMBEL (Ragweed, Common) [21]; rate 0.0313 kg/ha) | herbicidal rating AMBEL (AMBEL (Ragweed, Common) [21]; rate 0.0625 kg/ha)
5.0: Preemergence herbicidal rating ABUTH (ABUTH (Velvetleaf) [1]) | herbicidal rating SETVI (SETVI (Foxtail, Green) [18]; rate 0.0313 kg/ha) | herbicidal rating GLXMAW ([22]; rate 0.0156 kg/ha) | herbicidal effect rating, MOOVA (MOOVA (Monochoria); 0.0313 kg/ha)
8.5: herbicidal rating ZEAMX (ZEAMX (Corn, Field) [24]; rate 0.0625 kg/ha)
2.0: herbicidal effect rating, CYPIR (CYPIR (Rice Flatsedge); 0.2500 kg/ha) | herbicidal rating ORYSAT (ORYSAT (Rice, Tebonnet) [10]; rate 0.0625 kg/ha) | herbicidal rating ECHCG (ECHCG (Barnyardgrass) [14]; rate 0.0156 kg/ha) | herbicidal effect rating, ECHORC ([19]; 0.2500 kg/ha)
4.0: Preemergence herbicidal rating CHEAL [4] | herbicidal rating ECHCG (ECHCG (Barnyardgrass) [14]; rate 0.0313 kg/ha) | herbicidal rating CHEAL ([20]; rate 0.0625 kg/ha)
3.0: herbicidal effect rating, SAGPY ([3]; 0.2500 kg/ha) | Preemergence herbicidal rating GLXMAW [6] | herbicidal rating CASOB (CASOB (Sicklepod) [8]; rate 0.0625 kg/ha) | Preemergence herbicidal rating IPOHE [16] | Preemergence herbicidal rating AMBEL (AMBEL (Ragweed, Common) [17]) | herbicidal rating CHEAL ([20]; rate 0.0313 kg/ha)
4.5: herbicidal rating TRZAWR ([26]; rate 0.0156 kg/ha)
0.5: herbicidal rating ORYSAT (ORYSAT (Rice, Tebonnet) [10]; rate 0.0156 kg/ha)
7.5: herbicidal rating GLXMAW ([22]; rate 0.0625 kg/ha) | herbicidal rating ZEAMX (ZEAMX (Corn, Field) [24]; rate 0.0313 kg/ha)
7.0: herbicidal rating ECHCG (ECHCG (Barnyardgrass) [14]; rate 0.0625 kg/ha) | herbicidal effect rating, MOOVA (MOOVA (Monochoria); 0.2500 kg/ha) | herbicidal rating TRZAWR ([26]; rate 0.0625 kg/ha)
0.0: herbicidal effect rating, CYPIR (CYPIR (Rice Flatsedge); 0.0313 kg/ha) | herbicidal effect rating, CYPIR (CYPIR (Rice Flatsedge); 0.0625 kg/ha) | herbicidal effect rating, CYPIR (CYPIR (Rice Flatsedge); 0.1250 kg/ha) | Preemergence herbicidal rating SETVI (SETVI (Foxtail, Green) [2]) | herbicidal effect rating, SAGPY ([3]; 0.0313 kg/ha) | herbicidal effect rating, SAGPY ([3]; 0.0625 kg/ha) | herbicidal effect rating, SAGPY ([3]; 0.1250 kg/ha) | Preemergence herbicidal rating ZEAMX (ZEAMX (Corn, Field) [5]) | Preemergence herbicidal rating GALAP (GALAP (Galium) [7]) | herbicidal rating CASOB (CASOB (Sicklepod) [8]; rate 0.0156 kg/ha) | Preemergence herbicidal rating CASOB (CASOB (Sicklepod) [9]) | Preemergence herbicidal rating TRZAWR [11] | Preemergence herbicidal rating ORYSAT (ORYSAT (Rice, Tebonnet) [13]) | herbicidal effect rating, CYPSE (CYPSE (Flatsedge); 0.0313 kg/ha) | herbicidal effect rating, CYPSE (CYPSE (Flatsedge); 0.1250 kg/ha) | herbicidal rating SETVI (SETVI (Foxtail, Green) [18]; rate 0.0156 kg/ha) | herbicidal effect rating, ECHORC ([19]; 0.0313 kg/ha) | herbicidal effect rating, ECHORC ([19]; 0.0625 kg/ha) | herbicidal effect rating, ECHORC ([19]; 0.1250 kg/ha) | herbicidal rating CHEAL ([20]; rate 0.0156 kg/ha) | herbicidal rating GALAP (GALAP (Galium) [23]; rate 0.0156 kg/ha) | herbicidal rating GALAP (GALAP (Galium) [23]; rate 0.0313 kg/ha) | herbicidal rating GALAP (GALAP (Galium) [23]; rate 0.0625 kg/ha) | Preemergence herbicidal rating ECHCG (ECHCG (Barnyardgrass) [25])
